In the OligoGym collection one finds target mRNA inhibition data, which are given here for 61 sequences.

Where “and” joins values, the source holds several entries; their conditions need not be identical. Equal values may be shown once. After the bases stand the sugars from the 5' end (letter, count) and the backbone: PS all phosphorothioate, else s phosphorothioate and o phosphodiester by linkage. Methylation of C is not given here. e = 2'-O-(2-methoxyethyl) (MOE); k = constrained ethyl (cEt); d = 2'-deoxy (DNA)

This data set has as its target APOL1. The following applies: ASO.

With TCAATTTGTCAAGGCT (sugars k4 d9 k3, PS), the target mRNA inhibition is 46% and 59% (A431, 0.0625 µM); 78% and 83% (A431, 0.25 µM); 90% and 91% (A431, 1 µM).

Turning to “TAAGTATTGCCAGCTA (sugars k3 d4 k3 e1 d5, PS)”, the target mRNA inhibition (A431, 2 µM) worked out at 65%.

In the case of ATAATGGTAGGTCTAC (sugars k4 d9 k3, PS), the target mRNA inhibition is, setting by setting: (A431, 0.0625 µM) 42%; (A431, 0.25 µM) 78%; (A431, 1 µM) 90%.

For “CTATTAGAGGGCTAGT (sugars kdddddkekekddddd, PS)”, the target mRNA inhibition (A431, 2 µM) was 28%.

As to “TTCTATTAGAGGGCTA (sugars kekddddeekkddddd, PS)”, under “A431, 2 µM”, the target mRNA inhibition is 94%.

For “GCTTTAAACTCAGGTG (sugars k3 d4 k3 e1 d5, PS)”, the target mRNA inhibition (A431, 2 µM) was 74%.

For GTGTGAGTTGGTAAGT (sugars k4 d9 k3, PS), the target mRNA inhibition came out at 54% (A431, 0.0625 µM); 85% (A431, 0.25 µM); 95% (A431, 1 µM).

As to GTTTTTACAATAGTGC (sugars k4 d9 k3, PS), the target mRNA inhibition stood at 74% (A431, 0.0625 µM); 91% (A431, 0.25 µM); 96% (A431, 1 µM).

With ACAGCATTGAGTACAA (sugars k4 d9 k3, PS), the target mRNA inhibition turned out to be 44% (A431, 0.0625 µM); 78% (A431, 0.25 µM); 90% (A431, 1 µM).

Consider “GTTATGAAATTATTGG (sugars kekddddeekkddddd, PS)”, for which the target mRNA inhibition reads like this: (A431, 0.0156 µM) 14%; (A431, 0.0625 µM) 43%; (A431, 0.25 µM) 64%; (A431, 1 µM) 84%; (A431, 2 µM) 90%.

Regarding “TAATTCTATTAGAGGG (sugars kkddddkekekddddd, PS)”, the target mRNA inhibition (A431, 2 µM) is 34%.

“GGAATTATGGAATTGC (sugars k3 d4 k3 e1 d5, PS)”: the target mRNA inhibition (A431, 2 µM) is 65%.

Regarding “CACATCATTGGGTTAT (sugars kkkddddkekekdddd, PS)”, under “A431, 2 µM”, the target mRNA inhibition turned out to be 58%.

As for “CAGTTTTGTAAGTGCA (sugars kkdddddkekeddddd, PS)”, the target mRNA inhibition turned out to be 25% (A431, 0.0156 µM); 53% (A431, 0.0625 µM); 84% (A431, 0.25 µM); 89% (A431, 1 µM); 94% (A431, 2 µM).

On to “TTATATTTGATCCTCA (sugars kkdddddkekeddddd, PS)”, for which the target mRNA inhibition was 7% (A431, 0.0156 µM); 38% (A431, 0.0625 µM); 74% (A431, 0.25 µM); 92% (A431, 1 µM); 96% (A431, 2 µM).

AAGTGCAACCAATCAA (sugars k4 d9 k3, PS) came in with a target mRNA inhibition (A431, 0.0625 µM) of 36%; a target mRNA inhibition (A431, 0.25 µM) of 63%; a target mRNA inhibition (A431, 1 µM) of 83%.

In the case of “TCTATTAGAGGGCTAG (sugars kkkddddkekekdddd, PS)”, for the setting “A431, 2 µM”, the target mRNA inhibition stood at 23%.

For the setting “A431, 2 µM”, “GCTAATTTTCTGACTG (sugars kkkddddkekekdddd, PS)” gave a target mRNA inhibition of 88%.

TGTTATCCTCAAGCTC (sugars k4 d9 k3, PS): the target mRNA inhibition (A431, 0.0625 µM) is 37% and 17%.

In turn, “GAGTATTGTTTTTGTG (sugars kkkddddkekekdddd, PS)” had a target mRNA inhibition (A431, 2 µM) of 56%.

In turn, “GGCATTCAGAATTTCC (sugars kkddddekekeddddd, PS)” displayed a target mRNA inhibition (A431, 2 µM) of 93%.

As to “TTATATTTGATCCTCA (sugars k2 d4 e4 k2 d4, PS)”, the target mRNA inhibition is, setting by setting: (A431, 0.0156 µM) 0%; (A431, 0.0625 µM) 30%; (A431, 0.25 µM) 61%; (A431, 1 µM) 87%; (A431, 2 µM) 91%.

As for “GAACGCAATGCTGACT (sugars kkddddekekeddddd, PS)”, the target mRNA inhibition came out at 19% (A431, 0.0156 µM); 40% (A431, 0.0625 µM); 74% (A431, 0.25 µM); 92% (A431, 1 µM); 95% (A431, 2 µM).

Where the note is “A431, 2 µM”, “CATTCAGAATTTCCAC (sugars kkddddkekekkdddd, PS)” came in with a target mRNA inhibition of 57%.

In the case of “CGTCAATATATTCTTT (sugars kkkddddkekeddddd, PS)”, the target mRNA inhibition is, setting by setting: (A431, 0.0156 µM) 35%; (A431, 0.04 µM) 53% and 50%; (A431, 0.0625 µM) 72%; (A431, 0.25 µM) 90%; (A431, 1 µM) 96% and 95%; (A431, 2 µM) 94%.

For the sequence “CGTGTTATATTTGATC (sugars kkkddddkekekdddd, PS)”, the target mRNA inhibition (A431, 2 µM) was determined as 82%.

For “CTAATTTTCTGACTGT (sugars kkdddddkekeddddd, PS)”, the target mRNA inhibition reads like this: (A431, 0.0156 µM) 27%; (A431, 0.0625 µM) 56%; (A431, 0.25 µM) 80%; (A431, 1 µM) 93%; (A431, 2 µM) 98%.

Take “GTGAGTATTGTTTTTG (sugars kkkddddkekekdddd, PS)”: the target mRNA inhibition (A431, 2 µM) was determined as 85%.

As to TTATGGAATTGCAGAT (sugars k4 d9 k3, PS), the target mRNA inhibition runs as follows: (A431, 0.0625 µM) 38%; (A431, 0.25 µM) 67%; (A431, 1 µM) 86%.

For the sequence “GGAATTATGGAATTGC (sugars kkddddekekeddddd, PS)”, the target mRNA inhibition by setting is: (A431, 0.0156 µM) 23%; (A431, 0.0625 µM) 62%; (A431, 0.25 µM) 89%; (A431, 1 µM) 97%; (A431, 2 µM) 97%.

On to “GTTATATTTGATCCTC (sugars kkddddkekekkdddd, PS)”, for which, under “A431, 2 µM”, the target mRNA inhibition was 43%.

“GTATTTCTTGATGTGG (sugars kdddddkekekddddd, PS)” returned a target mRNA inhibition (A431, 2 µM) of 92%.

With “GGTTCAAAAGCAGCAT (sugars k2 d4 e3 k2 d5, PS)”, the target mRNA inhibition by setting is: (A431, 0.0156 µM) 21%; (A431, 0.0625 µM) 60%; (A431, 0.25 µM) 86%; (A431, 1 µM) 94%; (A431, 2 µM) 95%.

As to “GAAGATTGGCTCTGGC (sugars kkddddekekeddddd, PS)”, the target mRNA inhibition (A431, 2 µM) was 64%.

GTTCTAACTCTTGGGC (sugars k4 d9 k3, PS) displayed a target mRNA inhibition (A431, 0.0625 µM) of 74%; a target mRNA inhibition (A431, 0.25 µM) of 85%; a target mRNA inhibition (A431, 1 µM) of 92%.

In turn, “TTCTATTAGAGGGCTA (sugars kkkddddkdkdkdddd, PS)” registered a target mRNA inhibition (A431, 2 µM) of 78%.

“AAGATTGGCTCTGGCT (sugars k3 d4 k3 e1 d5, PS)” gave a target mRNA inhibition (A431, 2 µM) of 35%.

Regarding GTAAGTGCAACCAATC (sugars k4 d9 k3, PS), the target mRNA inhibition stood at 75% (A431, 0.0625 µM); 93% (A431, 0.25 µM); 99% (A431, 1 µM).

On to “AATTCTATTAGAGGGC (sugars kkkddddkekekdddd, PS)”, for which the target mRNA inhibition (A431, 2 µM) came to 41%.

Sequence GTTGTCCAGAGCTTTA (sugars k4 d9 k3, PS) registered a target mRNA inhibition (A431, 0.0625 µM) of 56%; a target mRNA inhibition (A431, 0.25 µM) of 72%; a target mRNA inhibition (A431, 1 µM) of 79%.

“CACATCATTGGGTTAT (sugars kkdddddkekeddddd, PS)” gave a target mRNA inhibition (A431, 2 µM) of 77%.

Turning to “AGTATTGTTTTTGTGG (sugars k3 d4 k3 e1 d5, PS)”, the target mRNA inhibition (A431, 2 µM) turned out to be 89%.

For the setting “A431, 2 µM”, “GAAGATTGGCTCTGGC (sugars kkddddkekekddddd, PS)” registered a target mRNA inhibition of 48%.

With TTTTGTTGCACCCTTG (sugars k4 d9 k3, PS), the target mRNA inhibition runs as follows: (A431, 0.0625 µM) 76%; (A431, 0.25 µM) 87%; (A431, 1 µM) 92%.

“ATTCTATTAGAGGGCT (sugars kkkddddkekekdddd, PS)” displayed a target mRNA inhibition (A431, 2 µM) of 37%.

The sequence “CTAATTTTCTGACTGT (sugars k2 d4 e4 k2 d4, PS)” gave a target mRNA inhibition (A431, 2 µM) of 88%.

For the sequence TGTAAGTGCAACCAAT (sugars k4 d9 k3, PS), the target mRNA inhibition reads like this: (A431, 0.0625 µM) 19%; (A431, 0.25 µM) 46%; (A431, 1 µM) 78%.

Take “ATTCTATTAGAGGGCT (sugars k3 d5 k3 d5, PS)”: the target mRNA inhibition (A431, 2 µM) came to 95%.

In turn, “TGAGTATTGTTTTTGT (sugars k2 d4 e3 k2 d5, PS)” registered a target mRNA inhibition (A431, 2 µM) of 87%.

Sequence “TGTTATATTTGATCCT (sugars kdddddkekekddddd, PS)” returned a target mRNA inhibition (A431, 2 µM) of 79%.

With “CGTCAATATATTCTTT (sugars k3 d4 k3 e1 d5, PS)”, the target mRNA inhibition was 96% and 95% (A431, 1 µM); 95% (A431, 2 µM).

For the sequence “GCTAATTTTCTGACTG (sugars kkddddkdkdkddddd, PS)”, the target mRNA inhibition amounted to 10% (A431, 0.0156 µM); 40% (A431, 0.0625 µM); 71% (A431, 0.25 µM); 87% (A431, 1 µM); 93% (A431, 2 µM).

For the sequence “GGTTATGAAATTATTG (sugars kkkddddkekeddddd, PS)”, the target mRNA inhibition (A431, 2 µM) was 88%.

For CACATCATTGGGTTAT (sugars k4 d9 k3, PS), the target mRNA inhibition by setting is: (A431, 0.0625 µM) 65%; (A431, 0.25 µM) 84%; (A431, 1 µM) 90%.

In the case of “GTGTATTTCTTGATGT (sugars kkkddddkekekdddd, PS)”, the target mRNA inhibition (A431, 2 µM) is 84%.

Regarding “GCTAATTTTCTGACTG (sugars kkdddddkekeddddd, PS)”, the target mRNA inhibition is 11% (A431, 0.0156 µM); 47% (A431, 0.0625 µM); 82% (A431, 0.25 µM); 94% (A431, 1 µM); 99% (A431, 2 µM).

Consider “GTTATGAAATTATTGG (sugars kkddddkekekkdddd, PS)”, for which the target mRNA inhibition (A431, 2 µM) turned out to be 86%.

With “CTTTAAACTCAGGTGA (sugars k2 d4 e4 k2 d4, PS)”, for the setting “A431, 2 µM”, the target mRNA inhibition is 88%.

“TTCTATTAGAGGGCTA (sugars k3 d4 k3 e1 d5, PS)” yielded a target mRNA inhibition (A431, 2 µM) of 85%.

On to “GGCAGTTTTGTAAGTG (sugars kkddddekekeddddd, PS)”, for which the target mRNA inhibition (A431, 2 µM) amounted to 75%.

Consider TGAAACATTCCTGGAC (sugars k4 d9 k3, PS), for which the target mRNA inhibition is 28% and 8% (A431, 0.0625 µM); 55% and 32% (A431, 0.25 µM); 80% and 65% (A431, 1 µM).
